In US20240294543A1, “CYCLOHEPTA-THIENO-DIAZEPINE DERIVATIVES AS GABA A GAMMA1 PAM” (Hoffmann-La Roche Inc., priority 2021, published 2024):
Read-outs that look alike come from different tables or passages of the source.

Legend:
[1] = target: human GABAA α1β3γ2 receptor (Homo sapiens (Human), UniProt P14867+P18507); test: Radioligand binding assay, competition for [3H]Flumazenil, γ2-containing GABAA subtypes; conditions: for γ2/γ1 Selectivity Ratio: Ki α1β3γ2 (nM)/Ki α2β2γ1 (nM); for LogSel: Log[Ki α1β3γ2 (nM)/Ki α2β2γ1 (nM)]
Summary of the method: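 Competition against [3H]Flumazenil binding in HEK293F cells transiently expressing human α1β3γ2 receptors, pellets resuspended in mannitol buffer pH 7,2-7,4. Incubated to equilibrium 1 hour at 4° C, filtered and washed with ice-cold 50 mM Tris pH 7.5, bound radioactivity by liquid scintillation counting. Ki values are means of two determinations.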

[2] = target: human GABAA α2β2γ1 receptor (Homo sapiens (Human), UniProt P47869+Q8N1C3); test: Radioligand binding assay, competition for [3H]RO7239181, γ1-containing GABAA subtypes; conditions: Ki h-GABAA α2β2γ1, membranes of HEK293F cells, [3H]RO7239181 20-30 nM
[3] = HEK293F cells, [3H]Flumazenil 1 nM, Table 1, read-out: Ki h-GABAA α1β3γ2

Cc1nc2n(n1)-c1sc3c(c1C(c1c(F)cccc1F)=N[C@H]2C)COC[C@H](C)O3 [Example 39, (7S,15S)-9-(2,6-difluorophenyl)-4,7,15-trimethyl-13,16-dioxa-18-thia-2,3,5,8-tetrazatetracyclo[8.8.0.02,6.011,17]octadeca-1(10),3,5,8,11(17)-pentaene]
Ki [1]: 9120 nM
γ2/γ1 Selectivity Ratio ([1]; Table 1): 157.6
LogSel ([1]; Table 1): 2.20
Ki ([2]; Table 1): 57.8 nM
Ki ([2]; Table 2): 57.8 nM

C[C@@H]1N=C(c2c(F)cccc2F)c2c(sc3c2COC[C@H](C)O3)-n2nc(C(=O)N3CC(OC(C)(C)C)C3)nc21 [Example 41, (3-tert-butoxyazetidin-1-yl)-[(7S,15S)-9-(2,6-difluorophenyl)-7,15-dimethyl-13,16-dioxa-18-thia-2,3,5,8-tetrazatetracyclo[8.8.0.02,6.011,17]octadeca-1(10),3,5,8,11(17)-pentaen-4-yl]methanone]
Ki [1, 3]: 12300 nM
γ2/γ1 Selectivity Ratio ([1]; Table 1): 188.2
LogSel ([1]; Table 1): 2.27
Ki ([2]; Table 1): 65.1 nM
Ki ([2]; Table 2): 65.1 nM

CCc1nnc2n1-c1sc3c(c1C(c1c(F)cccc1F)=N[C@H]2C)COCCO3 [Example 42, (7S)-9-(2,6-difluorophenyl)-3-ethyl-7-methyl-13,16-dioxa-18-thia-2,4,5,8-tetrazatetracyclo[8.8.0.02,6.011,17]octadeca-1(10),3,5,8,11(17)-pentaene]
Ki [1]: 4270 nM
γ2/γ1 Selectivity Ratio ([1]; Table 1): 134.9
LogSel ([1]; Table 1): 2.13
Ki ([2]; Table 1): 31.7 nM
Ki ([2]; Table 2): 31.7 nM

C[C@@H]1N=C(c2c(F)cccc2F)c2c(sc3c2COCCO3)-n2c(C3CC3)nnc21 [Example 43, (7S)-3-cyclopropyl-9-(2,6-difluorophenyl)-7-methyl-13,16-dioxa-18-thia-2,4,5,8-tetrazatetracyclo[8.8.0.02,6.011,17]octadeca-1(10),3,5,8,11(17)-pentaene]
Ki [1]: 5360 nM
γ2/γ1 Selectivity Ratio ([1]; Table 1): 227.2
LogSel ([1]; Table 1): 2.36
Ki ([2]; Table 1): 23.6 nM
Ki ([2]; Table 2): 23.6 nM

CC(C)c1nnc2n1-c1sc3c(c1C(c1c(F)cccc1F)=N[C@H]2C)COCCO3 [Example 44, (7S)-9-(2,6-difluorophenyl)-3-isopropyl-7-methyl-13,16-dioxa-18-thia-2,4,5,8-tetrazatetracyclo[8.8.0.02,6.011,17]octadeca-1(10),3,5,8,11(17)-pentaene]
Ki [1]: 6390 nM
γ2/γ1 Selectivity Ratio ([1]; Table 1): 220.4
LogSel ([1]; Table 1): 2.34
Ki ([2]; Table 1): 29 nM
Ki ([2]; Table 2): 29 nM

C[C@@H]1N=C(c2c(F)cccc2F)c2c(sc3c2COCCO3)-n2c(C(F)F)nnc21 [Example 48, (7S)-3-(difluoromethyl)-9-(2,6-difluorophenyl)-7-methyl-13,16-dioxa-18-thia-2,4,5,8-tetrazatetracyclo[8.8.0.02,6.011,17]octadeca-1(10),3,5,8,11(17)-pentaene]
Ki [1]: > 30000 nM
γ2/γ1 Selectivity Ratio ([1]; Table 1): 626.6
LogSel ([1]; Table 1): 2.80
Ki ([2]; Table 1): 47.9 nM
Ki ([2]; Table 2): 47.9 nM

CCc1nc2n(n1)-c1sc3c(c1C(c1c(F)cccc1F)=N[C@H]2C)COC[C@H](C)O3 [Example 49, (7S,15S)-9-(2,6-difluorophenyl)-4-ethyl-7,15-dimethyl-13,16-dioxa-18-thia-2,3,5,8-tetrazatetracyclo[8.8.0.02,6.011,17]octadeca-1(10),3,5,8,11(17)-pentaene]
Ki [1]: 8750 nM
γ2/γ1 Selectivity Ratio ([1]; Table 1): 166.8
LogSel ([1]; Table 1): 2.22
Ki ([2]; Table 1): 52.5 nM
Ki ([2]; Table 2): 52.5 nM

C[C@@H]1N=C(c2c(F)cccc2F)c2c(sc3c2COC[C@H](C)O3)-n2nc(C(=O)NCCO)nc21 [Example 53, (7S,15S)-9-(2,6-difluorophenyl)-N-(2-hydroxyethyl)-7,15-dimethyl-13,16-dioxa-18-thia-2,3,5,8-tetrazatetracyclo[8.8.0.02,6.011,17]octadeca-1(10),3,5,8,11(17)-pentaene-4-carboxamide]
Ki [1, 3]: 11400 nM
γ2/γ1 Selectivity Ratio ([1]; Table 1): 119.7
LogSel ([1]; Table 1): 2.08
Ki ([2]; Table 1): 95.3 nM
Ki ([2]; Table 2): 95.3 nM

Cc1nnc2n1-c1sc3c(c1C(c1c(F)cccc1F)=N[C@H]2C)CC[C@@H](F)CO3 [Example 56, (7S,14R)-9-(2,6-difluorophenyl)-14-fluoro-3,7-dimethyl-16-oxa-18-thia-2,4,5,8-tetrazatetracyclo[8.8.0.02,6.011,17]octadeca-1(10),3,5,8,11(17)-pentaene]
Ki [1]: 11500 nM
γ2/γ1 Selectivity Ratio ([1]; Table 1): 290.8
LogSel ([1]; Table 1): 2.46
Ki ([2]; Table 1): 39.4 nM
Ki ([2]; Table 2): 39.4 nM

Cc1nc2n(n1)-c1sc3c(c1C(c1c(F)cccc1F)=N[C@H]2C)COCCC3 [Example 57, (7S)-9-(2,6-difluorophenyl)-4,7-dimethyl-13-oxa-18-thia-2,3,5,8-tetrazatetracyclo[8.8.0.02,6.011,17]octadeca-1(10),3,5,8,11(17)-pentaene]
Ki [1]: 4520 nM
γ2/γ1 Selectivity Ratio ([1]; Table 1): 615.2
LogSel ([1]; Table 1): 2.79
Ki ([2]; Table 1): 7.3 nM
Ki ([2]; Table 2): 7.3 nM

C[C@@H]1N=C(c2c(F)cccc2F)c2c(sc3c2COCCC3)-n2nc(C(=O)NCC3(O)CC3)nc21 [Example 62, (7S)-9-(2,6-difluorophenyl)-N-[(1-hydroxycyclopropyl)methyl]-7-methyl-13-oxa-18-thia-2,3,5,8-tetrazatetracyclo[8.8.0.02,6.011,17]octadeca-1(10),3,5,8,11(17)-pentaene-4-carboxamide]
Ki [1, 3]: 4920 nM
γ2/γ1 Selectivity Ratio ([1]; Table 1): 200.3
LogSel ([1]; Table 1): 2.30
Ki ([2]; Table 1): 24.6 nM
Ki ([2]; Table 2): 24.5 nM

C[C@@H]1N=C(c2c(F)cccc2F)c2c(sc3c2COCCC3)-n2nc(C(=O)N[C@H]3C[C@H](O)C3)nc21 [Example 63, (7S)-9-(2,6-difluorophenyl)-N-(trans-3-hydroxycyclobutyl)-7-methyl-13-oxa-18-thia-2,3,5,8-tetrazatetracyclo[8.8.0.02,6.011,17]octadeca-1(10),3,5,8,11(17)-pentaene-4-carboxamide]
Ki [1, 3]: 4430 nM
γ2/γ1 Selectivity Ratio ([1]; Table 1): 96.5
LogSel ([1]; Table 1): 1.98
Ki ([2]; Table 1): 45.9 nM
Ki ([2]; Table 2): 45.9 nM

C[C@@H]1N=C(c2c(F)cccc2F)c2c(sc3c2COCCC3)-n2nc(C(=O)N[C@H]3C[C@@H](O)C3)nc21 [Example 64, (7S)-9-(2,6-difluorophenyl)-N-(cis-3-hydroxycyclobutyl)-7-methyl-13-oxa-18-thia-2,3,5,8-tetrazatetracyclo[8.8.0.02,6.011,17]octadeca-1(10),3,5,8,11(17)-pentaene-4-carboxamide]
Ki [1, 3]: 7870 nM
γ2/γ1 Selectivity Ratio ([1]; Table 1): 139.9
LogSel ([1]; Table 1): 2.15
Ki ([2]; Table 1): 56.2 nM
Ki ([2]; Table 2): 56.2 nM

C[C@@H]1N=C(c2c(F)cccc2F)c2c(sc3c2COCCO3)-n2cc(C(=O)NCC3(O)CC3)nc21 [Example 65, (7S)-9-(2,6-difluorophenyl)-N-[(1-hydroxycyclopropyl)methyl]-7-methyl-13,16-dioxa-18-thia-2,5,8-triazatetracyclo[8.8.0.02,6.011,17]octadeca-1(10),3,5,8,11(17)-pentaene-4-carboxamide]
Ki [1, 3]: 1240 nM
γ2/γ1 Selectivity Ratio ([1]; Table 1): 53.8
LogSel ([1]; Table 1): 1.73
Ki ([2]; Table 1): 23.1 nM
Ki ([2]; Table 2): 23.1 nM
